Values after ≈ are worked out from the molar mass of the structure shown. Structures can show the parent of a compound that is named as a salt. Where two headings read alike, the source gives them in different places.
Key:
[1] = system: P. aeruginosa SR27001 (multi-resistant Pseudomonas aeruginosa; IMP-1 producing strain); assay: Antimicrobial activity in vivo, mouse intraperitoneal infection, ED50 from survival rate; conditions: Mice (ICR type, male, 5 weeks), intravenous administration in twice from 1.5 h after infection, survival rate after 7 days
Method: The antimicrobial activity in vivo of the present compound (I) was determined.
Mice (ICR type, male, 5 weeks) were inoculated intraperitoneally with P. aeruginosa SR27001 (multi-resistant Pseudomonas aeruginosa; IMP-1 producing strain) to raise infection. One and half hours after, mice were treated with intravenious administration in twice, and then the ED50 value was calculated based on the survival rate after 7 days.

[2] = system: P. aeruginosa SR27001 (multi-resistant Pseudomonas aeruginosa; IMP-1 producing strain); assay: Antimicrobial activity in vitro (MIC) of the in vivo test compounds; format: cell-based; conditions: addition of Tf
Method: (§1) Measurement of Minimum Inhibitory Concentration (MIC, μg/ml) was conducted according to the standard method of the Japan Society for Chemotherapy and the amount of bacteria for inoculation was 1000 cfu/spot, and sensitive disc medium was used as the test medium, and conducted using agar plate incubation.
The antimicrobial activity in vitro (MIC) of the test compounds was determined according to the method of Experimental Example 1.

[3] = system: Pseudomonas aeruginosa SR27060; assay: Minimum Inhibitory Concentration (MIC), agar plate incubation, Japan Society for Chemotherapy standard method; format: cell-based; conditions: Pseudomonas aeruginosa SR27060, IMP-1, MBL producer strain (carbapenem resistant strain), 1000 cfu/spot, sensitive disc medium; for MIC: read-out: Minimum Inhibitory Concentration (MIC)
Method: (§2) The antimicrobial activity in vitro of the present compound (I) was determined.
as §1
(§3) In the tables, the unit of the values of inhibitory activity is μg/ml.

[4] = system: Klebsiella pneumoniae ATCC 700603; assay: as above; format: cell-based; conditions: Klebsiella pneumoniae ATCC 700603, SHV-18, ESBL producer strain, 1000 cfu/spot, sensitive disc medium; for MIC: ATCC700603, read-out: Minimum Inhibitory Concentration (MIC)
Method: as §2, §1, §3

[5] = system: Acinetobacter baumannii SR24396; assay: as above; format: cell-based; conditions: Acinetobacter baumannii SR24396, no enzyme, 1000 cfu/spot, sensitive disc medium; for MIC: read-out: Minimum Inhibitory Concentration (MIC)
Method: as §2, §1, §3

[6] = system: Pseudomonas aeruginosa SR24; assay: as above; format: cell-based; conditions: Pseudomonas aeruginosa SR24, no enzyme, ceftazidime sensitive strain, 1000 cfu/spot, sensitive disc medium; for MIC: read-out: Minimum Inhibitory Concentration (MIC)
Method: as §2, §1, §3

[7] = system: Stenotrophomonas maltophilia SR21970; assay: Minimum Inhibitory Concentration (MIC), agar plate incubation, CLSI method; format: cell-based; conditions: Stenotrophomonas maltophilia SR21970, L-1, MBL producer strain (carbapenem resistant strain), 10000 cfu/spot, Mueller-Hinton agar medium; for MIC: read-out: Minimum Inhibitory Concentration (MIC)
Method: as §2
Measurement of Minimum Inhibitory Concentration (MIC, μg/ml) was conducted according to the CLSI (Clinical and Laboratory Standards Institute) and the amount of bacteria for inoculation was 10000 cfu/spot, and Mueller-Hinton agar medium was used as the test medium, and conducted using agar plate incubation.
as §3

[8] = Pseudomonas aeruginosa, read-out: ED50
[9] = Pseudomonas aeruginosa, read-out: MIC

C[C@H](O/N=C(\C(=O)N[C@@H]1C(=O)N2C(C(=O)[O-])=C(C[N+]34CCC[C@H]3CN(C(=O)c3ccc(O)c(O)c3Cl)CC4)CS[C@H]12)c1csc(N)n1)C(=O)[O-].[Na+] (stereo partly shown) [Compound I-13]
ED50 [1, 8]: 4.22 mg/kg
MIC [2, 9]: 1 µg/mL

CCC(ON=C(C(=O)NC1C(=O)N2C(C(=O)[O-])=C(C[N+]34CCC(CC3)N(C(=O)c3ccc(O)c(O)c3Cl)CC4)CSC12)c1csc(N)n1)C(=O)[O-].[Na+] (stereo not shown) [Compound I-25]
Minimum Inhibitory Concentration (MIC) [3]: 0.5 µg/mL
Minimum Inhibitory Concentration (MIC) [4]: 0.25 µg/mL
Minimum Inhibitory Concentration (MIC) [5]: 0.125 µg/mL
Minimum Inhibitory Concentration (MIC) [6]: 0.125 µg/mL
ED50 [1]: 3.34 mg/kg
MIC [2]: 1 µg/mL
Minimum Inhibitory Concentration (MIC) [7]: 1 µg/mL

CC(C)(ON=C(C(=O)NC1C(=O)N2C(C(=O)[O-])=C(C[N+](C)(C)C3CCN(C(=O)c4ccc(O)c(O)c4Cl)C3)CSC12)c1csc(N)n1)C(=O)[O-].[Na+] (stereo not shown) [Compound I-20]
ED50 [1]: 5.48 mg/kg
MIC [2]: 2 µg/mL

CC[C@H](O/N=C(\C(=O)N[C@@H]1C(=O)N2C(C(=O)O)=C(C[N+]34CCC(CNC(=O)c5ccc(O)c(O)c5Cl)(CC3)CC4)CS[C@H]12)c1csc(N)n1)C(=O)[O-] [II-59]
MIC [3]: 0.5 µg/mL (≈ 0.642 µM)
MIC [4]: 0.5 µg/mL (≈ 0.642 µM)
MIC [5]: 0.125 µg/mL (≈ 0.161 µM)
MIC [6]: 0.25 µg/mL (≈ 0.321 µM)
MIC [7]: 1 µg/mL (≈ 1.28 µM)

Nc1nc(/C(=N/O[C@H](C(=O)[O-])c2ccccc2)C(=O)N[C@@H]2C(=O)N3C(C(=O)O)=C(C[N+]45CCC[C@H]4CN(C(=O)c4ccc(O)c(O)c4Cl)CC5)CS[C@H]23)ns1 (stereo partly shown) [Compound I-52]
MIC [3]: 2 µg/mL (≈ 2.46 µM)
MIC [4]: 0.5 µg/mL (≈ 0.615 µM)
MIC [5]: 0.125 µg/mL (≈ 0.154 µM)
MIC [6]: 0.125 µg/mL (≈ 0.154 µM)
MIC [7]: 1 µg/mL (≈ 1.23 µM)

N#CC[C@H](O/N=C(\C(=O)N[C@@H]1C(=O)N2C(C(=O)O)=C(C[N@@+]34CC[C@@H](C3)N(C(=O)c3ccc(O)c(O)c3Cl)CC4)CS[C@H]12)c1csc(N)n1)C(=O)[O-] [II-1]
MIC [3]: 0.5 µg/mL (≈ 0.657 µM)
MIC [4]: 0.25 µg/mL (≈ 0.328 µM)
MIC [5]: 0.063 µg/mL (≈ 0.0828 µM)
MIC [6]: 0.125 µg/mL (≈ 0.164 µM)
MIC [7]: 2 µg/mL (≈ 2.63 µM)

CC(C)(O/N=C(\C(=O)N[C@@H]1C(=O)N2C(C(=O)O)=C(C[N+]3(C)[C@@H]4CC[C@H]3C[C@@H](NC(=O)c3cc(O)c(O)c(F)c3)C4)CS[C@H]12)c1csc(N)n1)C(=O)[O-] (stereo partly shown) [II-47]
MIC [3]: 0.25 µg/mL (≈ 0.328 µM)
MIC [4]: 0.25 µg/mL (≈ 0.328 µM)
MIC [5]: 0.25 µg/mL (≈ 0.328 µM)
MIC [6]: 0.063 µg/mL (≈ 0.0827 µM)
MIC [7]: 0.5 µg/mL (≈ 0.656 µM)

CC(C)(O/N=C(\C(=O)N[C@@H]1C(=O)N2C(C(=O)[O-])=C(C[N+](C)(C)C3CCN(C(=O)c4ccc(O)c(O)c4Cl)CC3)CS[C@H]12)c1csc(N)n1)C(=O)[O-].[Na+] [Compound I-21]
Minimum Inhibitory Concentration (MIC) [3]: 1 µg/mL
Minimum Inhibitory Concentration (MIC) [4]: 0.5 µg/mL
Minimum Inhibitory Concentration (MIC) [5]: 0.125 µg/mL
Minimum Inhibitory Concentration (MIC) [6]: 0.125 µg/mL
Minimum Inhibitory Concentration (MIC) [7]: 1 µg/mL

CO/N=C(\C(=O)N[C@@H]1C(=O)N2C(C(=O)[O-])=C(C[N+]3(C)CCCC3)CS[C@H]12)c1csc(N)n1 [CFPM, cefepime hydrochloride hydrate, reference compound]
ED50 [1, 8]: > 100 mg/kg
MIC [2, 9]: > 64 µg/mL

Nc1nc(C(=NOC(CC(=O)[O-])C(=O)[O-])C(=O)NC2C(=O)N3C(C(=O)[O-])=C(C[N+]45CCC(CNC(=O)c6ccc(O)c(O)c6Cl)(CC4)CC5)CSC23)cs1.[Na+].[Na+] (stereo not shown) [II-58]
Minimum Inhibitory Concentration (MIC) [3]: 0.5 µg/mL
Minimum Inhibitory Concentration (MIC) [4]: 0.5 µg/mL
Minimum Inhibitory Concentration (MIC) [5]: 0.125 µg/mL
Minimum Inhibitory Concentration (MIC) [6]: 0.25 µg/mL
Minimum Inhibitory Concentration (MIC) [7]: 0.5 µg/mL

CC(C)(O/N=C(\C(=O)N[C@@H]1C(=O)N2C(C(=O)[O-])=C(C[N+]34CCC(CC3)[C@H](NC(=O)c3ccc(O)c(O)c3Cl)C4)CS[C@H]12)c1csc(N)n1)C(=O)O [Compound I-19]
MIC [3]: 0.125 µg/mL (≈ 0.164 µM)
MIC [4]: 0.5 µg/mL (≈ 0.654 µM)
MIC [5]: 0.125 µg/mL (≈ 0.164 µM)
MIC [6]: 0.125 µg/mL (≈ 0.164 µM)
MIC [7]: 0.5 µg/mL (≈ 0.654 µM)

CC(C)(O/N=C(\C(=O)N[C@@H]1C(=O)N2C(C(=O)[O-])=C(C[N+]3(C)[C@@H]4CC[C@H]3C[C@@H](NC(=O)c3ccc(O)c(O)c3Cl)C4)CS[C@H]12)c1csc(N)n1)C(=O)O (stereo partly shown) [II-2]
MIC [3]: 1 µg/mL (≈ 1.28 µM)
MIC [4]: 0.5 µg/mL (≈ 0.642 µM)
MIC [5]: 0.25 µg/mL (≈ 0.321 µM)
MIC [6]: 0.125 µg/mL (≈ 0.161 µM)
MIC [7]: 2 µg/mL (≈ 2.57 µM)

C[N+]1(CC2=C(C(=O)[O-])N3C(=O)C(NC(=O)C(=NOC(CC(=O)O)C(=O)[O-])c4csc(N)n4)C3SC2)C2CCC1CC(NC(=O)c1cc(O)c(O)c(Cl)c1)C2.[Na+] (stereo not shown) [II-51]
Minimum Inhibitory Concentration (MIC) [3]: 0.25 µg/mL
Minimum Inhibitory Concentration (MIC) [4]: 0.25 µg/mL
Minimum Inhibitory Concentration (MIC) [5]: 0.125 µg/mL
Minimum Inhibitory Concentration (MIC) [6]: 0.125 µg/mL
Minimum Inhibitory Concentration (MIC) [7]: 0.25 µg/mL

From US9145425B2, “Cephem compound having catechol group” (SHIONOGI & CO., LTD., priority 2010, dated 2015)
